Assay results: patent US11339171B2, “MDM2 inhibitors” (Gan & Lee Pharmaceuticals, priority 2017, dated 2022)

Biological target: T1, MDM2 (Homo sapiens, UniProt Q00987)
T1 construct: made in house
Assay: Inhibition test of MDM2-P53 (GST-MDM2, Biotin-P53, Anti-GST-Tb, SA-XL665)
Type: binding
Outline: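 Compounds, serially diluted 5-fold (twelve concentrations), were shaken for 90 min at 25° C with a mix of GST-MDM2 (4 nM final), Biotin-P53, anti-GST-Tb and SA-XL665. Buffer: 1×PBS, 0.1% BSA, 5 mM DTT, 1 mM AEBSF; signal read on a microplate reader.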

T1 sequence (Q00987 whole entry): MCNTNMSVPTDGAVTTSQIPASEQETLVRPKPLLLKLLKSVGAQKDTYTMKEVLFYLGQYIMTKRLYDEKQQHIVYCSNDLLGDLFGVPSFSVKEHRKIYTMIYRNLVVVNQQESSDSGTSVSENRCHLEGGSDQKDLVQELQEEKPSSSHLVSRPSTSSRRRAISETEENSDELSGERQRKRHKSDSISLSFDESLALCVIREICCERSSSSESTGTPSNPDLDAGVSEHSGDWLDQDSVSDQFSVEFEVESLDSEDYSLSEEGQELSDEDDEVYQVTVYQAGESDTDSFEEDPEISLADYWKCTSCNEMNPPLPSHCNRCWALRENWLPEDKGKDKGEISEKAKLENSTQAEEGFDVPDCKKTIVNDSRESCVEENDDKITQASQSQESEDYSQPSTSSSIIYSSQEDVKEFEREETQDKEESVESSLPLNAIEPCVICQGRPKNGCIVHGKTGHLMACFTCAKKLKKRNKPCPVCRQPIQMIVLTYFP

Q: Which IC50 does the source give for `COc1cc(OC2CC2)ncc1-c1nc2c(n1C(C)C)[C@]1(C(=O)Nc3cc(Cl)ccc31)N(c1cc(Cl)ccc1C)C2=O` [Example R-110, (R)-6-chloro-5′-(5-chloro-2-methylphenyl)-2′-(6-cyclopropoxy-4-methoxypyridin-3-yl)-3′-isopropyl-3′H-spiro[dihydroindole-3,4′-pyrrolo[3,4-d]imidazole]-2,6′(5′H)-dione] here?
A: The IC50 was 704 nM.

Q: Which IC50 does the source give for `COc1nc(N(C)C)ncc1-c1nc2c(n1C(C)C)[C@]1(C(=O)Nc3cc(Cl)ccc31)N(c1cccc(Cl)c1)C2=O` [Example R-112, (R)-6-chloro-5′-(3-chlorophenyl)-2′-(2-(dimethylamino)-4-methoxypyrimidin-5-yl)-3′-isopropyl-3′H-spiro[dihydroindole-3,4′-pyrrolo[3,4-d]imidazole]-2,6′(5′H)-dione] here?
A: Its IC50 is 104 nM.

Q: `COc1cc(C2CC2)ccc1-c1nc2c(n1C(C)C)[C@]1(C(=O)Nc3cc(Cl)ccc31)N(c1cccc(Cl)c1)C2=O` [Example R-116, (R)-6-chloro-5′-(3-chlorophenyl)-2′-(4-cyclopropyl-2-methoxyphenyl)-3′-isopropyl-3′H-spiro[dihydroindole-3,4′-pyrrolo[3,4-d]imidazole]-2,6′(5′H)-dione] was tested. Which IC50 did it give?
A: Its IC50 is 689 nM.

Q: `COc1nc(N2CCC2)ncc1-c1nc2c(n1C(C)C)[C@]1(C(=O)Nc3cc(Cl)ccc31)N(c1cc(Cl)ccc1C)C2=O` [Example R-117, (R)-2′-(2-(12zetidine-1-yl)-4-methoxypyrimidin-5-yl)-6-chloro-5′-(5-chloro-2-methylphenyl)-3′-isopropyl-3′H-spiro[dihydroindole-3,4′-pyrrolo[3,4-d]imidazole]-2,6′(5′ H)-dione] was tested. Which IC50 did it give?
A: Its IC50 is 233 nM.

Q: With `COc1nc(C)ncc1-c1nc2c(n1C(C)C)[C@]1(C(=O)Nc3cc(Cl)ccc31)N(c1cc(Cl)ccc1C)C2=O` [Example R-118, (R)-6-chloro-5′-(5-chloro-2-methylphenyl)-3′-isopropyl-2′-(4-methoxy-2-methylpyrimidin-5-yl)-3′H-spiro[dihydroindole-3,4′-pyrrolo[3,4-d]imidazole]-2,6′(5′H)-dione] as the compound, how does the IC50 read?
A: Its IC50 is 436 nM.

Q: With `CCN(C)c1ncc(-c2nc3c(n2C(C)C)[C@]2(C(=O)Nc4cc(Cl)ccc42)N(c2cc(Cl)ccc2C)C3=O)c(OC)n1` [Example R-119, (R)-6-chloro-5′-(5-chloro-2-methylphenyl)-2′-(2-(ethyl(methyl)amino)-4-methoxypyrimidin-5-yl)-3′-isopropyl-3′H-spiro[dihydroindole-3,4′-pyrrolo[3,4-d]imidazole]-2,6′(5′H)-dione] as the compound, how does the IC50 read?
A: Its IC50 is 851 nM.

Q: For `COc1cc(OC(F)(F)F)ccc1-c1nc2c(n1C(C)C)[C@]1(C(=O)Nc3cc(Cl)ccc31)N(c1cccc(Cl)c1)C2=O` [Example R-120, (R)-6-chloro-5′-(3-chlorophenyl)-3′-isopropyl-2′-(2-methoxy-4-(trifluoromethoxy)phenyl)-3′H-spiro[dihydroindole-3,4′-pyrrolo[3,4-d]imidazole]-2,6′(5′H)-dione], which IC50 is on record?
A: Its IC50 is 4780 nM.

Q: Which IC50 does the source give for `COc1nc(C2CC2)ncc1-c1nc2c(n1C(C)C)[C@]1(C(=O)Nc3cc(Cl)ccc31)N(c1cc(Cl)ccc1C)C2=O` [Example R-121, (R)-6-chloro-5′-(5-chloro-2-methylphenyl)-2′-(2-cyclopropyl-4-methoxypyrimidin-5-yl)-3′-isopropyl-3′H-spiro[dihydroindole-3,4′-pyrrolo[3,4-d]imidazole]-2,6′ (5′H)-dione] here?
A: Its IC50 is 300 nM.

Q: `COc1nc(C2CC2)ncc1-c1nc2c(n1C(C)C)[C@]1(C(=O)Nc3cc(Cl)ccc31)N(c1cccc(Cl)c1)C2=O` [Example R-122, (R)-6-chloro-5′-(3-chlorophenyl)-2′-(2-cyclopropyl-4-methoxypyrimidin-5-yl)-3′-isopropyl-3′H-spiro[dihydroindole-3,4′-pyrrolo[3,4-d]imidazole]-2,6′(5′H)-dione] was tested. Which IC50 did it give?
A: Its IC50 is 794 nM.

Q: How did the IC50 turn out when `CCOc1ncc(-c2nc3c(n2C(C)C)[C@]2(C(=O)Nc4cc(Cl)ccc42)N(c2cccc(Cl)c2)C3=O)c(OC)n1` [Example R-123, (R)-6-chloro-5′-(3-chlorophenyl)-2′-(2-ethoxy-4-methoxypyrimidin-5-yl)-3′-isopropyl-3′H-spiro[dihydroindole-3,4′-pyrrolo[3,4-d]imidazole]-2,6′(5′H)-dione] was run?
A: Its IC50 is 116 nM.

Q: With `COc1nc(OC(C)C)ncc1-c1nc2c(n1C(C)C)[C@]1(C(=O)Nc3cc(Cl)ccc31)N(c1cccc(Cl)c1)C2=O` [Example R-124, (R)-6-chloro-5′-(3-chlorophenyl)-2′-(2-isopropoxy-4-methoxypyrimidin-5-yl)-3′-isopropyl-3′H-spiro[dihydroindole-3,4′-pyrrolo[3,4-d]imidazole]-2,6′(5′H)-dione] as the compound, how does the IC50 read?
A: The IC50 was 1310 nM.

Q: For `COc1cc(C#N)ccc1-c1nc2c(n1C(C)C)[C@]1(C(=O)Nc3cc(Cl)ccc31)N(c1cccc(Cl)c1)C2=O` [Example R-128, (R)-4-(6-chloro-5′-(3-chlorophenyl)-3′-isopropyl-2,6′-dioxo-5′,6′-dihydro-3′H-spiro[dihydroindole-3,4′-pyrrolo[3,4-d]imidazole]-2′-yl)-3-methoxybenzonitrile], which IC50 is on record?
A: Its IC50 is 612 nM.

Q: `COc1cc(C(F)(F)F)ccc1-c1nc2c(n1C(C)C)[C@]1(C(=O)Nc3cc(Cl)ccc31)N(c1cccc(Cl)c1)C2=O` [Example R-129, (R)-6-chloro-5′-(3-chlorophenyl)-3′-isopropyl-2′-(2-methoxy-4-(trifluoromethyl)phenyl)-3′H-spiro[dihydroindole-3,4′-pyrrolo[3,4-d]imidazole]-2,6′(5′H)-dione] was tested. Which IC50 did it give?
A: Its IC50 is 149 nM.

Q: With `COc1cc(F)c(-c2nc3c(n2C(C)C)[C@]2(C(=O)Nc4cc(Cl)ccc42)N(c2cc(Cl)ccc2C)C3=O)c(OC)c1` [Example R-130, (R)-6-chloro-5′-(5-chloro-2-methylphenyl)-2′-(2-fluoro-4,6-dimethoxyphenyl)-3′-isopropyl-3′H-spiro[dihydroindole-3,4′-pyrrolo[3,4-d]imidazole]-2,6′(5′H)-dione] as the compound, how does the IC50 read?
A: The IC50 was 568 nM.

Q: Which IC50 does the source give for `COc1cc(OC)c(-c2nc3c(n2C(C)C)[C@]2(C(=O)Nc4cc(Cl)ccc42)N(c2cc(Cl)cnc2C)C3=O)cn1` [Example R-131, (R)-6-chloro-5′-(5-chloro-2-methylpyridin-3-yl)-2′-(4,6-dimethoxypyridin-3-yl)-3′-isopropyl-3′H-spiro[dihydroindole-3,4′-pyrrolo[3,4-d]imidazole]-2,6′(5′H)-dione] here?
A: The IC50 was 120 nM.

Q: For `COc1cc(OC)c(-c2nc3c(n2C(C)C)[C@]2(C(=O)Nc4cc(Cl)ccc42)N(c2cc(Cl)ccc2F)C3=O)cn1` [Example R-133, (R)-6-chloro-5′-(5-chloro-2-fluorophenyl)-2′-(4,6-dimethoxypyridin-3-yl)-3′-isopropyl-3′H-spiro[dihydroindole-3,4′-pyrrolo[3,4-d]imidazole]-2,6′(5′H)-dione], which IC50 is on record?
A: The IC50 was 1110 nM.

Q: For `CCOc1ncc(-c2nc3c(n2C(C)C)[C@]2(C(=O)Nc4cc(Cl)ccc42)N(c2cc(Cl)cnc2C)C3=O)c(OC)n1` [Example R-134, (R)-6-chloro-5′-(5-chloro-2-methylpyridin-3-yl)-2′-(2-ethoxy-4-methoxypyrimidin-5-yl)-3′-isopropyl-3′H-spiro[dihydroindole-3,4′-pyrrolo[3,4-d]imidazole]-2,6′(5′H)-dione], which IC50 is on record?
A: Its IC50 is 322 nM.

Q: For `COc1nc(N(C)C)ncc1-c1nc2c(n1C(C)C)[C@]1(C(=O)Nc3cc(Cl)ccc31)N(c1cc(Cl)cnc1C)C2=O` [Example R-135, (R)-6-chloro-5′-(5-chloro-2-methylpyridin-3-yl)-2′-(2-(dimethylamino)-4-methoxypyrimidin-5-yl)-3′-isopropyl-3′H-spiro[dihydroindole-3,4′-pyrrolo[3,4-d]imidazole]-2,6′(5′H)-dione], which IC50 is on record?
A: Its IC50 is 423 nM.

Q: For `COc1nc(OC(C)C)ncc1-c1nc2c(n1C(C)C)[C@]1(C(=O)Nc3cc(Cl)ccc31)N(c1cc(Cl)cnc1C)C2=O` [Example R-136, (R)-6-chloro-5′-(5-chloro-2-methylpyridin-3-yl)-2′-(2-isopropoxy-4-methoxypyrimidin-5-yl)-3′-isopropyl-3′H-spiro[dihydroindole-3,4′-pyrrolo[3,4-d]imidazole]-2,6′(5′H)-dione], which IC50 is on record?
A: The IC50 was 1800 nM.

Q: How did the IC50 turn out when `COc1cc(OC(C)C)ncc1-c1nc2c(n1C(C)C)[C@]1(C(=O)Nc3cc(Cl)ccc31)N(c1cc(Cl)cnc1C)C2=O` [Example R-137, (R)-6-chloro-5′-(5-chloro-2-methylpyridin-3-yl)-2′-(6-isopropoxy-4-methoxypyridin-3-yl)-3′-isopropyl-3′H-spiro[dihydroindole-3,4′-pyrrolo[3,4-d]imidazole]-2,6′(5′H)-dione] was run?
A: The IC50 was 422 nM.

Q: How did the IC50 turn out when `COc1cc(C(F)(F)F)ncc1-c1nc2c(n1C(C)C)[C@]1(C(=O)Nc3cc(Cl)ccc31)N(c1cc(Cl)ccc1C)C2=O` [Example R-138, (R)-6-chloro-5′-(5-chloro-2-methylphenyl)-3′-isopropyl-2′-(4-methoxy-6-(trifluoromethyl)pyridin-3-yl)-3′H-spiro[dihydroindole-3,4′-pyrrolo[3,4-d]imidazole]-2,6′(5′H)-dione] was run?
A: Its IC50 is 132 nM.

Q: With `CCOc1cc(OC)c(-c2nc3c(n2C(C)C)[C@]2(C(=O)Nc4cc(Cl)ccc42)N(c2cc(F)cc(Cl)c2)C3=O)cn1` [Example R-139, (R)-6-chloro-5′-(3-chloro-5-fluorophenyl)-2′-(6-ethoxy-4-methoxypyridin-3-yl)-3′-isopropyl-3′H-spiro[dihydroindole-3,4′-pyrrolo[3,4-d]imidazole]-2,6′(5′H)-dione] as the compound, how does the IC50 read?
A: Its IC50 is 342 nM.

Q: How did the IC50 turn out when `COc1nc(OCC(F)(F)F)ncc1-c1nc2c(n1C(C)C)[C@]1(C(=O)Nc3cc(Cl)ccc31)N(c1cc(Cl)ccc1C)C2=O` [Example R-141, (R)-6-chloro-5′-(5-chloro-2-methylphenyl)-3′-isopropyl-2′-(4-methoxy-2-(2,2,2-trifluoroethoxy)pyrimidin-5-yl)-3′H-spiro[dihydroindole-3,4′-pyrrolo[3,4-d]imidazole]-2,6′(5′H)-dione] was run?
A: The IC50 was 762 nM.

Q: Which IC50 does the source give for `COc1cc(C(F)(F)F)ncc1-c1nc2c(n1C(C)C)[C@]1(C(=O)Nc3cc(Cl)ccc31)N(c1cccc(Cl)c1)C2=O` [Example R-142, (R)-6-chloro-5′-(3-chlorophenyl)-3′-isopropyl-2′-(4-methoxy-6-(trifluoromethyl)pyridin-3-yl)-3′H-spiro[dihydroindole-3,4′-pyrrolo[3,4-d]imidazole]-2,6′(5′H)-dione] here?
A: The IC50 was 137 nM.
